Molecular target: Protein phosphatase methylesterase 1 (Homo sapiens) (UniProt Q9Y570)
Test: PME-1 inhibitors, ABPP after gel filtration, late-stage follow-up, gel-based ABPP (AID 2368)
Conditions: PME-1 labeling, stronger effect = higher value, concentration not given here

Protein phosphatase methylesterase 1 (Homo sapiens), sequence (Q9Y570 whole entry, looked up): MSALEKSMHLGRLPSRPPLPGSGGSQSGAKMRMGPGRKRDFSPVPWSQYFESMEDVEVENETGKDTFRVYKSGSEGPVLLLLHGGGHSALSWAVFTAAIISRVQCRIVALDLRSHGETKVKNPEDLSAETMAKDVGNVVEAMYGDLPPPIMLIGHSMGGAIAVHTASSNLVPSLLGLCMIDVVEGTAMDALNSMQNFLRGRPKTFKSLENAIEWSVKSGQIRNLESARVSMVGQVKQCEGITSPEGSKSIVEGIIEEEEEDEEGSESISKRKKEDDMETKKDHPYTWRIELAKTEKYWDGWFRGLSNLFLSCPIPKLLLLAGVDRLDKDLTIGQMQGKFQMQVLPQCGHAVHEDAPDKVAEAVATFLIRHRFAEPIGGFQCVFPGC

SMILES | inhibition [%]
N#C/C(=C\c1cccn1S(=O)(=O)c1cccc(C#N)c1)S(=O)(=O)c1ccc(F)cc1 | > 50
N#C/C(=C\c1cccn1S(=O)(=O)c1cccc([N+](=O)[O-])c1)S(=O)(=O)c1ccc(F)cc1 | > 50
